Columns and labels:
[1] = tested on: rat brain transient middle cerebral artery occlusion (tMCAO) IR injury; test: In vivo rat brain ischaemia and reperfusion (tMCAO): neurological score, infarct, histology; design: Median Neurological Score / Average Neurological Score: scale not given here; details: for Average Neurological Score / Median Neurological Score: dimethyl malonate 6 mg/kg/min i.v. infusion
Text: The following murine models of warm ischaemia and/or IR injury were used: global ischaemia of ex vivo perfused mouse heart; in vivo mouse left descending coronary artery (LAD) ligation; in vivo rat brain transient middle cerebral artery occlusion (tMCAO); in vivo mouse kidney ischaemia by monolateral occlusion of the renal hilum; in vivo global ischaemia of the liver following cervical dislocation. The modelling of metabolic pathways in the ischaemic myocardium was done as described previously^11. The cell models of IR injury used were adult isolated primary rat cardiomyocytes and the mouse C2C12 myoblast cell line. Fluorescence within cardiomyocytes was assessed by laser scanning confocal microscopy. DHE fluorescence was used to measure ROS production, TMRM fluorescence in de-quench mode was used for mitochondrial membrane potential and NAD(P)H autofluorescence was used to assess the reduction potential of the NAD(P)H pools^8. To assess metabolic pathways in the ex vivo perfused mouse heart ^13C-labelled glucose, glutamine or aspartate were infused into the isolated heart and the ^13C isotopologues of CAC metabolites were then quantified by LC-MS. The effects of metabolic inhibitors on ischaemic metabolite accumulation and the distribution of ^13C-labels were assessed by i.v. infusion of metabolic inhibitors followed by LC-MS analysis of tissue metabolites. The redox state of the cardiac CoQ pool was assessed by LC. The amelioration of in vivo IR injury by metabolic inhibitors was assessed by i.v. administration of the inhibitors followed by measurement of the infarct size in the heart by triphenyltetrazolium chloride staining and in the brain by determining neurological function and infarct size by histology. Male spontaneously hypertensive stroke prone (SHRSP) rats from the colony maintained at the University of Glasgow (270-310 g) were anaesthetised with 5% isoflurane in oxygen and were intubated and ventilated throughout surgery (˜2.5% isoflurane/oxygen). Body temperature was maintained at 37±0.5° C. Animals underwent pre-stroke burrhole surgery^35 before transient middle cerebral artery occlusion (tMCAO, 45 min). Briefly, a silicone-coated monofilament was advanced (Doccol Corporation, USA) was advanced through the common carotid artery to block the origin of the MCA^36. Animals were maintained under anaesthesia during ischaemia. Immediately following removal of the filament, or after 5 mins of reperfusion, the brain was removed following cervical dislocation and infarct tissue separated from surrounding tissue on the ipsilateral side and snap frozen in liquid nitrogen for metabolomic analysis. Corresponding regions were taken from the contralateral side. […] These rats were then sacrificed by transcardiac perfusion fixation and the infarct area was assessed across 7 coronal levels following hematoxylin and eosin staining^39.

[2] = tested on: adult primary rat cardiomyocytes; test: Mitochondrial membrane potential (TMRM) in primary cardiomyocytes during in situ IR; type: cell-based; details: 4 mM in ischaemic buffer
Method: FIG. 15: Tracking mitochondrial membrane potential in primary cardiomyocytes during in situ IR. Primary rat cardiomyocytes were subjected to 40 min ischaemia and reoxygenation and mitochondrial membrane potential was tracked throughout the experiment by measurement of tetramethylrhoadmine (TMRM) fluorescence. […] Average traces from at least three replicate experiments are shown. (a) TMRM signal throughout the entire experiment.
Male Sprague-Dawley rats (300-370 g) were terminally anaesthetised via IP injections of 200 mg/kg sodium pentobarbitone and 330 U/kg heparin. Hearts were excised and retrograde perfused on a Langendorff-perfusion system with 13 mL/min oxygenated KH buffer at 37° C. […]
Cells were imaged within 36 hours of plating. […] Simulated ischaemia was achieved by replacing the buffer with a pre-gassed, hypoxic recording buffer simulating ischaemia (as above but lacking glucose and containing 10 mM sodium lactate, 14.8 mM KCl; pH 6.4) and by covering the heated stage with a transparent, gas-impermeant lid, forming a small chamber into which argon was forced to maintain hypoxia. pO2 was routinely measured as <2.0 mm Hg during simulated ischaemia. […]
Mitochondrial membrane potential was measured using tetramethylrhodamine, methyl ester (TMRM, Life Technologies) in dequench mode. […] TMRM fluorescence was excited at 543 nm and emission was collected using a LP 560 filter.

## COC(=O)CC(=O)OC [dimethyl malonate]
[1]; Baseline, tMCAO rats
  Average Neurological Score: 31.67
  Median Neurological Score: 32.00
[1]; Day 1 after tMCAO
  Average Neurological Score: 22.67
  Median Neurological Score: 22.00
[1]; Day 2 after tMCAO
  Average Neurological Score: 24.00
  Median Neurological Score: 24.00
[1]; Day 3 after tMCAO
  Average Neurological Score: 24.33
  Median Neurological Score: 25.00
[1]; i.v. infusion during rat tMCAO
  neurological function associated with stroke: preventing the decline in neurological function
  protection against brain IR injury: protective
  volume of infarcted brain tissue caused by IR injury: decreasing the volume of infarcted brain tissue
[1]; i.v. infusion during rat tMCAO, hematoxylin and eosin
  pyknotic nuclear morphology and vacuolation of the neuropil (histology): reducing the pyknotic nuclear morphology and vacuolation of the neuropil
[2]
  rate of mitochondrial polarisation upon reperfusion: diminished the rate of mitochondrial polarisation upon reperfusion

Source: patent publication US10603298B2, “Succinate dehydrogenase inhibitors (SDHi's)” (Medical Research Council, priority 2014, dated 2020)
